# Legend:
# Type in all cases: in vivo
# [1] = test system: Plutella xylostella (diamond back moth); experiment: Example B2: Activity against Plutella xylostella (larvicide, feeding/residual contact, preventive); details: 120 h, artificial diet, L2 larvae, larval mortality, antifeedant, growth regulation after 5 days
# Experimental: Example B2: Activity Against Plutella xylostella (Diamond Back Moth) (Larvicide, Feeding/Residual Contact Activity, Preventive) 24-well microtiter plate (MTP) with artificial diet was treated with test solutions by pipetting. After drying, the MTPs were infested with L2 larvae (10-15 per well). After an incubation period of 5 days, samples were checked for larval mortality, antifeedant and growth regulation.
# [2] = test system: Diabrotica balteata (corn root worm); experiment: Example B3: Activity against Diabrotica balteata (larvae L2 on maize sprouts, feeding/contact, preventative); details: 120 h, maize sprouts sprayed, larval mortality and growth regulation after 5 days
# Experimental: Example B3: Activity Against Diabrotica balteata (Corn Root Worm) (Larvae L2 on Maize Sprouts, Feeding/Contact, Preventative) Maize sprouts, placed on an agar layer in 24 well micro titer plates were treated with test solutions by spraying. After drying, the MTPs were infested with L2 larvae (6-10 per well). After an incubation period of 5 days, samples were checked for larval mortality and growth regulation.
# [3] = test system: Spodoptera littoralis (Egyptian cotton leaf worm); experiment: Example B1: Activity against Spodoptera littoralis (larvicide, feeding/residual contact, preventive); details: foliar, 72 h, cotton leaf discs sprayed, L1 larvae, mortality, repellent effect, feeding behaviour, growth regulation 3 days after treatment
# Description: Example B1: Activity Against Spodoptera littoralis (Egyptian Cotton Leaf Worm) (Larvicide, Feeding/Residual Contact Activity, Preventive) Cotton leaf discs were placed on agar in a 24-well microtiter plate and sprayed with test solutions. After drying, the leaf discs were infested with 5 L1 larvae. The samples were checked for mortality, repellent effect, feeding behaviour, and growth regulation 3 days after treatment (DAT).
# [4] = test system: Bemisia tabaci (cotton white fly); experiment: Example B5: Activity against Bemisia tabaci (adulticide contact activity, preventative); details: foliar, 168 h, cotton leaf discs sprayed, adult white flies, mortality 7 DAT
# Experimental: Example B5: Activity Against Bemisia tabaci (Cotton White Fly) (Adulticide Contact Activity, Preventative), Adult Cotton leaf discs were placed on agar in a 24-well microtiter plate and sprayed with test solutions. After drying, the leaf discs were infested with adult white flies. After an incubation period of 7 DAT, samples were checked for mortality and special effects (e.g. phytotoxicity).
# [5] = test system: Spodoptera littoralis (Egyptian cotton leaf worm); experiment: Example B7: Activity against Spodoptera littoralis (systemic activity); details: 120 h, systemic via lettuce roots in agar, mortality, repellent effect, feeding behavior, growth regulation 5 days after infestation
# Description: Example B7: Activity Against Spodoptera littoralis (Egyptian Cotton Leaf Worm) (Systemic Activity) Test compounds were applied by pipette into 24 well plates and mixed with agar. Lettuce seeds were placed on the agar and the multi well plate is closed by another plate which contains also agar. After 7 days the roots have absorbed the compound and the lettuce has grown into the lid plate. The lettuce leaves were now cut off into the lid plate. Spodoptera eggs were pipetted through a plastic stencil on a humid gel blotting paper and the plate closed with it. The samples are checked for mortality, repellent effect, feeding behavior, and growth regulation 5 days after infestation.
# [6] = test system: Myzus persicae (green peach aphid); experiment: Example B8: Activity against Myzus persicae (feeding/residual contact, preventive, mixed population); details: foliar, 144 h, sunflower leaf discs sprayed, mixed ages, mortality 6 DAT
# Experimental: Example B8: Activity Against Myzus persicae (Green Peach Aphid) (Feeding/Residual Contact Activity, Preventive), Mixed Population Sunflower leaf discs were placed on agar in a 24-well microtiter plate and sprayed with test solutions. After drying, the leaf discs were infested with an aphid population of mixed ages. After an incubation period of 6 DAT, samples were checked for mortality and special effects (e.g. phytotoxicity).
# [7] = test system: Euschistus heros (neotropical brown stink bug); experiment: Example B10: Activity against Euschistus heros; details: 120 h, soybean leaf sprayed, N-2 nymphs, mortality 5 days after infestation
# Experimental: Example B10: Activity Against Euschistus heros (Neotropical Brown Stink Bug) Soybean leaf on agar in 24-well microtiter plates were sprayed with aqueous test solutions prepared from 10,000 ppm DMSO stock solutions. After drying the leaf were infested with N-2 nymphs. The samples were assessed for mortality 5 days after infestation.
SMILES,pest or weed control at 400 ppm [1] [%],pest or weed control at 400 ppm [2] [%],pest or weed control at 400 ppm [3] [%],pest or weed control at 400 ppm [4] [%],pest or weed control at 12.5 ppm [5] [%],pest or weed control at 400 ppm [6] [%],pest or weed control at 400 ppm [7] [%]
CCc1ccccc1-c1cnc(-c2nc3cc(C(F)(F)F)ncc3n2C)c(S(=O)(=O)CC)c1 [Compound P38],> 80,> 80,,,,,
CCS(=O)(=O)c1cc(-c2cccc(OC(F)(F)F)c2)cnc1-c1nc2cc(C(F)(F)F)ncc2n1C [Compound P25],> 80,> 80,> 80,> 80,≥ 80,> 80,> 80
"CCS(=O)(=O)c1cc(-c2ccc(Cl)cc2C)cnc1-c1nc2cc(C(F)(F)F)ncc2n1C [Compound P14, 2-[5-(4-chloro-2-methyl-phenyl)-3-ethylsulfonyl-2-pyridyl]-3-methyl-6-(trifluoromethyl)imidazo[4,5-c]pyridine]",> 80,> 80,> 80,,,> 80,> 80
CCS(=O)(=O)c1cc(-c2cccc(-c3nnco3)c2)cnc1-c1nc2cc(C(F)(F)F)ncc2n1C [Compound P23],> 80,> 80,> 80,,≥ 80,> 80,> 80
CCS(=O)(=O)c1cc(-c2cccc(-c3nnc(C)o3)c2)cnc1-c1nc2cc(C(F)(F)F)ncc2n1C [Compound P20],> 80,,> 80,> 80,,> 80,
"CCSc1cc(-c2ccc(Cl)cc2)cnc1-c1nc2cc(C(F)(F)F)ncc2n1C [Compound P15, 2-[5-(4-chlorophenyl)-3-ethylsulfanyl-2-pyridyl]-3-methyl-6-(trifluoromethyl)imidazo[4,5-c]pyridine]",> 80,> 80,> 80,,,,> 80
CCSc1ccc(-c2cnc(-c3nc4cc(C(F)(F)F)ncc4n3C)c(S(=O)(=O)CC)c2)cc1 [Compound P32],> 80,> 80,> 80,,,> 80,> 80
CCS(=O)(=O)c1cc(-c2cccc(Cl)c2)cnc1-c1nc2cc(C(F)(F)F)ncc2n1C [Compound P5],> 80,> 80,> 80,> 80,≥ 80,> 80,> 80
CCS(=O)(=O)c1cc(-c2cc(F)c(F)cc2F)cnc1-c1nc2cc(C(F)(F)F)ncc2n1C [Compound P35],> 80,> 80,> 80,,≥ 80,,> 80
CCS(=O)(=O)c1cc(-c2ccc([Si](C)(C)C)cc2)cnc1-c1nc2cc(C(F)(F)F)ncc2n1C [Compound P26],> 80,> 80,,,,,
CCS(=O)(=O)c1cc(-c2ccc(CC#N)cc2)cnc1-c1nc2cc(C(F)(F)F)ncc2n1C [Compound P31],> 80,,,,,> 80,
CCS(=O)(=O)c1cc(-c2cc(F)ccc2F)cnc1-c1nc2cc(C(F)(F)F)ncc2n1C [Compound P11],> 80,> 80,> 80,,,> 80,> 80
CCS(=O)(=O)c1cc(-c2cccc(C(F)(F)F)c2)cnc1-c1nc2cc(C(F)(F)F)ncc2n1C [Compound P3],> 80,> 80,> 80,> 80,≥ 80,> 80,> 80
CCS(=O)(=O)c1cc(-c2ccccc2SC)cnc1-c1nc2cc(C(F)(F)F)ncc2n1C [Compound P28],> 80,> 80,,,,> 80,
CCS(=O)(=O)c1cc(-c2ccc(Cl)c(Cl)c2)cnc1-c1nc2cc(C(F)(F)F)ncc2n1C [Compound P6],> 80,> 80,> 80,,≥ 80,> 80,> 80
CCS(=O)(=O)c1cc(-c2ccccc2Cl)cnc1-c1nc2cc(C(F)(F)F)ncc2n1C [Compound P12],> 80,> 80,> 80,,,> 80,> 80
CCS(=O)(=O)c1cc(-c2ccc(Cl)cc2)ccc1-c1nc2cc(C(F)(F)F)ncc2n1C [Compound P22],> 80,> 80,> 80,> 80,≥ 80,,> 80
CCSc1cc(-c2ccc(C(F)(F)F)cc2)ccc1-c1nc2cc(C(F)(F)F)ncc2n1C [Compound P33],,> 80,,,,,> 80
CCS(=O)(=O)c1cc(-c2ccc(Cl)cc2Cl)cnc1-c1nc2cc(C(F)(F)F)ncc2n1C [Compound P8],> 80,> 80,> 80,> 80,,> 80,
CCS(=O)(=O)c1cc(-c2ccc(C(F)(F)F)cc2)ccc1-c1nc2cc(C(F)(F)F)ncc2n1C [Compound P27],> 80,> 80,> 80,> 80,≥ 80,,> 80
CCS(=O)(=O)c1cc(-c2ccccc2OCCSC)cnc1-c1nc2cc(C(F)(F)F)ncc2n1C [Compound P30],,,> 80,,,,
CCS(=O)(=O)c1cc(-c2ccc(-n3cccn3)cc2)cnc1-c1nc2cc(C(F)(F)F)ncc2n1C [Compound P37],> 80,> 80,> 80,,,> 80,> 80
"CCS(=O)(=O)c1cc(-c2ccc(Cl)cc2)cnc1-c1nc2cc(C(F)(F)F)ncc2n1C [Compound P1, 2-[5-(4-chlorophenyl)-3-ethylsulfonyl-2-pyridyl]-3-methyl-6-(trifluoromethyl)imidazo[4,5-c]pyridine]",> 80,> 80,> 80,> 80,≥ 80,> 80,> 80
CCS(=O)(=O)c1cc(-c2cc(C)c(OC)c(C)c2)cnc1-c1nc2cc(C(F)(F)F)ncc2n1C [Compound P10],> 80,> 80,,,,,
CCS(=O)(=O)c1cc(-c2cccc(CC#N)c2)cnc1-c1nc2cc(C(F)(F)F)ncc2n1C [Compound P29],,,,,,> 80,
CCS(=O)(=O)c1cc(-c2ccc(OC)c(F)c2)cnc1-c1nc2cc(C(F)(F)F)ncc2n1C [Compound P9],> 80,> 80,> 80,,,> 80,
